Series [1] in a line: Pediatric ACAT/PBPK model (Type 1 SMA patients). The arrangement: species or system human. The following applies: Type 1 SMA patients 33-39 months; optimized on observed data. From the text:
(§1) The pharmacokinetic (PK) model in adult subjects was developed using an Advanced Compartmental And Transit (ACAT)/Physiologically Based Pharmacokinetic (PBPK) model in GastroPlus™ software, Version 9.6 (SimulationPlus, Lancaster, CA, USA).
(§2) • Principle set-up of a pediatric ACAT/PBPK model in GastroPlus™ software including physico-chemical parameters, physiological parameters, and formulation factors. The ACAT model was linked to a full PBPK model in which tissue-to-plasma concentration ratios were estimated via in silico method provided by GastroPlus™ software. • Estimation of the clearance (CL) using plasma concentrations of branaplam from an open-label multi-part first-in-human proof of concept study of oral branaplam, Part 1 only. The aim of Part 1 of this study was to determine the safety and tolerability of ascending weekly doses and to estimate the maximum tolerated dose (MTD) of oral/enteral branaplam (formulation described in Example 3) in infants with Type 1 SMA. All patients had exactly 2 copies of the SMN2 gene. Patients were dosed once weekly with branaplam. The branaplam doses were escalated in subsequent cohorts until MTD was determined or when PK results confirmed that the MTD could not be reached due to a potential pharmacokinetic exposure plateau at higher doses. The starting dose referring to the free base was 6 mg/m^2 (equal to 0.3125 mg/kg). Subsequent doses were 12 mg/m^2, 24 mg/m^2, 48 mg/m^2 and 60 mg/m^2 (0.625 mg/kg, 1.25 mg/kg, 2.5 mg/kg and 3.125 mg/kg, respectively). 14 patients were enrolled in Part 1; 13 patients were exposed to branaplam. The duration of exposure ranged from 4-33 months, 7 patients remain in the study. Six of the 7 patients are receiving 60 mg/m^2, 1 patient is receiving 48 mg/m^2.
Observed plasma concentrations of branaplam in 33-39 months old Type 1 SMA patients after nominal branaplam doses of 60 mg/m^2 (3.125 mg/kg, first-in-human proof of concept study with branaplam as described above) were used to build the pediatric ACAT/PBPK by means of GastroPlus™ software. […]

Series [2] is described as follows: GastroPlus ACAT/PBPK physico-chemical and formulation input parameters. The following applies: for controlled-release dissolution profile, release: fitted to plasma profile.
From the text: as §1, §2
The in vivo solubility parameter for branaplam was newly assessed to consider the impact of the solubilizer cyclodextrin (CD), which is present in the currently used formulation (Example 3), on the solubility of branaplam. […]

Another series is described as follows: Adult ACAT/PBPK model. The arrangement: species or system human. The following applies: pediatric value entered. Here is the method: To scale up the branaplam pediatric ACAT/PBPK model to an adult ACAT/PBPK model, adult CL projected from nonclinical species was applied to replace the pediatric CL, and the body weight of 70 kg was used. Dose volume was set 250 mL. The distribution parameters estimated for the pediatric patients were entered to the adult PK model. […] Model predictions of branaplam exposures after single oral administration of branaplam to adults are depicted in Table 5.

For another series, the system named is mHTT. Kind of series: Mutant and total HTT multiplex HTRF assay in Q48 HTT human embryonic stem cell line: mHTT. The series is classed as cell-based. Conditions: Q48 HTT hESC, 48 hours. Summed up: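 Q48 HTT hESCs from HD donors were treated with compound for 48 h at 37 °C after 24 h adherence, then lysed. Lysates were read by multiplex HTRF with N-terminal donor, polyQ (MW1) and post-polyQ (MAB2166) antibodies for 4-6 h at RT. Donor/acceptor ratios give relative mHTT and tHTT; pIC50 reported.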

Where “and” joins values, the source holds several entries; their conditions need not be identical. Equal entries are not always repeated.

Consider `CC1(C)CC(Oc2ccc(-c3ccc(-c4cn[nH]c4)cc3O)nn2)CC(C)(C)N1` [Compound 18, 5-(1H-pyrazol-4-yl)-2-(6-((2,2,6,6-tetramethylpiperidin-4-yl)oxy)pyridazin-3-yl)phenol], for which, in series [1], the Vc is given as 3.62 (Optimized value using GastroPlus ™ based on the 1/h, the k12 is given as 1.41 (Optimized value using GastroPlus ™ based on the 1/h and the k21 is 0.144 (Optimized value using GastroPlus ™ based on the 1/h. Also, the “controlled-release dissolution profile, release” value in series [2] (at 0.25 h) was 2%. Further, the “controlled-release dissolution profile, release” value in series [2] (at 1 h) is reported as 5%. In series [2] (pH 6.8, optimized with GastroPlus on observed concentration-time data (cyclodextrin formulation), listed as branaplam), the Solubility was 0.088 at pH 6.8 (Optimized value using GastroPlus ™ software mg/mL and 0.088 at pH 6.8 (Optimized value using GastroPlus ™ based mg/mL. Also, in the series “Adult ACAT/PBPK model”, the Vc is 3.62 (Optimized value using GastroPlus ™ based on the 1/h, the k12 was 1.41 (Optimized value using GastroPlus ™ based on the 1/h and the k21 was 0.144 (Optimized value using GastroPlus ™ based on the 1/h. For the same compound, in the series with mHTT, the “Rating (based on mHTT potency)” value is “**** (a pIC50 value between 7.0 and 7.5 is indicated by four stars (****))”; the “mHTT pIC50” value turned out to be 7.2795.

Source of the values: patent publication US20240216369A1, “THE USE OF A SPLICING MODULATOR FOR A TREATMENT SLOWING PROGRESSION OF HUNTINGTON'S DISEASE” (Novartis AG, priority 2019, published 2024).
